Laboratory results as given in patent publication US11084841B1, “Chitooligosaccharide-N-geraniol derivatives, methods for preparing and application thereof” (Jiangnan University, priority 2020, dated 2021).

Experiments:
Staphylococcus aureus = test: antibacterial activity test, culture plate with antibacterial substance; format: cell-based; conditions: 1 mg/ml antibacterial substance, 37° C., 24 hours, versus control plate, FIG. 5
Experimental: (§1) Gram negative and positive bacterium (Escherichia coli and Staphylococcus aureus) are selected for the antibacterial activity test. The bacteria strain was selected to grow in LB culture medium and sub-culture to the second generation in logarithmic phase. The bacterial suspension was diluted to the required concentration (10^5 CFU/ml) with normal saline. Under the aseptic condition, the bacterial solution and antibacterial substance solution (mix 5 μL bacterial solution and 5 mL LB liquid medium containing 1 mg/ml antibacterial substance) were added onto the culture plate and mixed evenly. The control group was the culture plate without antibacterial substance, and then the culture plates were incubated at 37° C. for 24 hours to observe the growth of bacteria.

Escherichia coli = test: as above; format: cell-based; conditions: 1 mg/ml antibacterial substance, 37° C., 24 hours, versus control plate, FIG. 6
Experimental: as §1

For `CC(C)=CCC/C(C)=C/CO` [Ger, (2E)-3,7-dimethylocta-2,6-dien-1-ol], the “inhibition of bacterial growth” value (Staphylococcus aureus) was “able to inhibit” and the “inhibition of bacterial growth” value (Escherichia coli) was “able to inhibit”.
